Test results reported in patent US11166958B2, “4-pyrazin-2-ylmethyl-morpholine derivatives and the use thereof as medicament” (Boehringer Ingelheim International GmbH, priority 2018, dated 2021).

Experiments:
NMDA NR1/NR2B receptor = NMDA NR1/NR2B receptor (Homo sapiens (Human), UniProt Q13224); experiment: In vitro NMDA NR1/NR2B cell assay (FLIPR, intracellular calcium induced by glycine/glutamate); type: cell-based; details: HEK293 NR1/NR2B, 20 μM glycine / 1 μM glutamate, read-out: In vitro NR2B affinity, IC50
Protocol: A human HEK293 cell line with tetracyclin-inducible expression of NMDA NR1/NR2B receptor was used as a test system for compound efficacy and potency. The cell line was purchased from ChanTest, Catalog #CT6121. Compound activity was determined by measuring the effect of compounds on intracellular calcium concentration induced by glycine/glutamate agonism in a FLIPRtetra system (Molecular Devices).
The cells were obtained as frozen cells in cryo-vials and stored until use at −150° C. Cells were grown in culture medium (DMEM/F12, 10% FBS, 5 μg/mL Blasticidin, 150 μg/mL Zeozin, 500 μg/mL Geneticin). […] For sub-culturing the cells were detached from flasks by Versene. For the assay, cells were detached, washed twice with induction medium (DMEM/F12 without glutamine, 10% FBS, 2 μg/mL Tetracycline, 2 mM Ketamine) and seeded to 384 well pure coat amine plates (Becton Dickinson, 50000 cells per well in 50 μl) 48 h prior to assay in induction medium.
The test compounds were dissolved in 100% DMSO at a concentration of 10 mM and in a first step diluted in DMSO to a concentration of 5 mM, followed by serial dilution steps in 100% DMSO. Dilution factor and number of dilution steps may vary according to needs. Typically 8 different concentrations by 1:5 dilutions were prepared in duplicate, further intermediate dilutions (1:37.5) of the substances were carried out with aqueous assay buffer (137 mM NaCl, 4 mM KCl, 1.8 mM CaCl2), 10 mM HEPES, 10 mM Glucose, pH 7.4) resulting in a compound concentration 3 times above the final test concentration and DMSO at 2.7% resulting in 0.9% final DMSO concentration in the assay.
At the assay day cells were washed 3× with assay buffer (as described above), 10 μL buffer remained in the wells after washing. 10 μL Ca kit loading buffer (AAT Bioquest; prepared from the kit containing the following components: Component A: Fluo-8 NW dissolved in 200 μL DMSO and 20 μl of this solution are mixed with 10 ml buffer prepared out of component B and C, Component B: 10× Pluronic® F127 Plus diluted 1:10 in component C, Component C: HHBS (Hanks with 20 mM Hepes) was added to the cells and the plates were incubated with lid for 60 minutes at room temperature. 20 μl assay buffer containing 60 μM glycine (20 μM final) and 3 μM glutamate (1 μM final) was added to column 1-23, column 24 got assay buffer without glycine/glutamate to serve as negative unstimulated control. Fluorescence (indicating the calcium influx as a result of the NR1/NR2B ion channel activation) was read on the FLIPRtetra device for 60 seconds to monitor the glutamate induced effects. After 2 minutes 20 μL of compound dilution prepared as described above or controls (row 1-22) in assay buffer were carefully added to the wells. […] The average of 2 measurements at 5 minutes and 5 min 10 seconds after compound addition is calculated and further used for IC50 calculations. Each assay microtiter compound dilution plate contained wells (in column 23 or 24) with DMSO controls instead of compound as controls for glycine/glutamate induced fluorescence (high controls) and wells with 1 μM of a reference NR2B NAM as low controls (Compound 22; reference: Layton, Mark E et al, ACS Chemical Neuroscience 2011, 2(7), 352-362).
The output file of the reader contains the well number and measured average fluorescence units. For data evaluation and calculation, the measurement of the low control was set as 0% control and the measurement of the high control was set as 100% control. The IC50 values were calculated using the standard 4 parameter logistic regression formula. Calculation: [y=(a−d)/(1+(x/c)^b)+d], a=low value, d=high value; x=conc M; c=IC50 M; b=slope.

Nav1.6 channel = Nav1.6 channel (Homo sapiens (Human), UniProt Q9UQD0); experiment: Nav1.6 inhibition, IonWorks Quattro electrophysiology; type: cell-based
Protocol: IonWorks Quattro electrophysiological platform
The compounds were prepared in DMSO at 300× the final assay concentrations of 1 and 5 μM.
The 300× DMSO stock solutions were transferred into assay plates where 2 μl per well of each 300× stock solution were placed. All assay plates were stored at −80° C. until the day of assay.
On the day of the assay, the appropriate assay plate was thawed at room temperature, centrifuged, and 198 μl of external recording solution was added and mixed thoroughly. This provided a 1:100 dilution. A further 1:3 dilution occurred upon addition to the cells in the IonWorks Quattro electrophysiological platform, giving a 1:300 dilution in total. On each assay plate, at least 8 wells were reserved for vehicle control (0.3% DMSO) and at least 8 wells for each positive control specific to the cell line tested. The positive controls were tested at a maximal blocking and an approximate IC50 concentration. As positive control Lidocaine at concentrations of 30 and 1000 μM was used.
The solutions for recording Nav1.6 currents were as follows:
Amphotericin B was used to obtain electrical access to the cell interior at a final concentration of 200 μg/ml in internal recording solution.
State-dependent inhibition: Sodium channels when held at depolarized potential or long test pulse, the channels open and inactivate and then stay inactivated until the membrane potential is stepped back to hyperpolarized potentials, when the inactivated channels recover from inactivation into closed state.
Cells were held at −120 mV. In order to completely inactivate the sodium channels (pulse 1), the cells were pulsed to +0 mV for 2500 ms and stepped back to −120 mV for 10 ms (to completely recover from inactivation, however channels that had drugs bound to them will not recover from inactivation) before stepping to +0 mV for 20 ms (pulse 2).
Assay Control Results Both the positive and vehicle control data associated with each cell line assayed are shown below as an example. The mean is shown for each positive and negative control as solid symbol with the total number of individual well replicates given next to the solid symbol. In addition, the individual data of each well are shown on the graph as open symbols so that the variation about the mean value can be readily assessed.
Shown below are the assay controls for the Nav1.6 IonWorks Quattro assay.
Tables 3 and 4 show the normalized percentage inhibition of Nav1.6 channel. […] (see also the figure Assay Control Results above).

Chain of Nav1.6 channel (Q9UQD0 whole entry): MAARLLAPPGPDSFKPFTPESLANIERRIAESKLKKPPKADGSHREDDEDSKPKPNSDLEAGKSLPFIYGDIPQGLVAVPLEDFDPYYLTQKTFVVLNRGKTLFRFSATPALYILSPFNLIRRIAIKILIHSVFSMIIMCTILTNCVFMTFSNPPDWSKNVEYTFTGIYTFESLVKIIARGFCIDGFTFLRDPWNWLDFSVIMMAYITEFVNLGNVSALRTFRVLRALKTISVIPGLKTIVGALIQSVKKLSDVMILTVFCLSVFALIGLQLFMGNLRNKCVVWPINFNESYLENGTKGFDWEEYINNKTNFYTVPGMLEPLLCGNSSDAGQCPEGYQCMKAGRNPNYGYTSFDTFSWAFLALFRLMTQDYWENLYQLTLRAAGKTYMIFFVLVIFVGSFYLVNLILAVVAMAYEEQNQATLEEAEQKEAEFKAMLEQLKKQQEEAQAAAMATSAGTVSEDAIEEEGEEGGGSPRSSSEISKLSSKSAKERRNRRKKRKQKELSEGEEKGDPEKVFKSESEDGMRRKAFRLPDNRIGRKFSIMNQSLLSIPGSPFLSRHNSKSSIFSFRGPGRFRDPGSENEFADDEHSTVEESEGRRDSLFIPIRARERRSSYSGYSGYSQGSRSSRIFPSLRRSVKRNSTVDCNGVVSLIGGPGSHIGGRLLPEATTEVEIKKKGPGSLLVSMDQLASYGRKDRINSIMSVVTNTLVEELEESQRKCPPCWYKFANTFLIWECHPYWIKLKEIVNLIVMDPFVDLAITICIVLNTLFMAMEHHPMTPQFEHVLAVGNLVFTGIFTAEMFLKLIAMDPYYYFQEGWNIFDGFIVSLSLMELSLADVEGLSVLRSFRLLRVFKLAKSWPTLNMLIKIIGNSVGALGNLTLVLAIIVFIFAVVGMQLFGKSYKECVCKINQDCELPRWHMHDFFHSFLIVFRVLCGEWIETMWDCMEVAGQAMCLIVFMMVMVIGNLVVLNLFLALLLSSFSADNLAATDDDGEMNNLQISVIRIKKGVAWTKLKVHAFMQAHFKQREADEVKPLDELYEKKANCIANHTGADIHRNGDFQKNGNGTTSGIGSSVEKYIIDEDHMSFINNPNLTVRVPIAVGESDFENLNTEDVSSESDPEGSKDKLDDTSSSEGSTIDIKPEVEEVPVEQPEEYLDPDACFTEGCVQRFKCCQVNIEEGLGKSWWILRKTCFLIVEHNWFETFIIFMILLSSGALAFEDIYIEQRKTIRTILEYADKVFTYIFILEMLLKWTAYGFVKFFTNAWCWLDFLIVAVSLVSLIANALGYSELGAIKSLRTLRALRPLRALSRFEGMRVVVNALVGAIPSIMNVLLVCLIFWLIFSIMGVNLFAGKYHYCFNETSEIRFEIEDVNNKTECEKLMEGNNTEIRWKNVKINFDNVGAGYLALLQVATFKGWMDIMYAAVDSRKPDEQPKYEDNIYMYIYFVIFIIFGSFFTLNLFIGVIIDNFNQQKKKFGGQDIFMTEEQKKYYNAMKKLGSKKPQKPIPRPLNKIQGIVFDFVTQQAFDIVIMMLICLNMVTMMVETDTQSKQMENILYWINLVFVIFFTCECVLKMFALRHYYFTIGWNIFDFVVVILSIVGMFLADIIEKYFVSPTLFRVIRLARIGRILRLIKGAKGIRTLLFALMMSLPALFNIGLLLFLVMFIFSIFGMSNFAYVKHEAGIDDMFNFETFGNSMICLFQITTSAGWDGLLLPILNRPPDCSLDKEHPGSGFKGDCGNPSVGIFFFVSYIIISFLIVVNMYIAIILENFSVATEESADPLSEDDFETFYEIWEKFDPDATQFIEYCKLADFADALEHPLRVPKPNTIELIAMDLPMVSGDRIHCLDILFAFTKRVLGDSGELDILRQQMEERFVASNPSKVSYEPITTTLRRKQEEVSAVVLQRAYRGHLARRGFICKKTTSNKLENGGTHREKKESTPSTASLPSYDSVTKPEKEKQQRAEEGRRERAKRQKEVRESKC
Chain of NMDA NR1/NR2B receptor (Q13224 27-1484, other chains not shown): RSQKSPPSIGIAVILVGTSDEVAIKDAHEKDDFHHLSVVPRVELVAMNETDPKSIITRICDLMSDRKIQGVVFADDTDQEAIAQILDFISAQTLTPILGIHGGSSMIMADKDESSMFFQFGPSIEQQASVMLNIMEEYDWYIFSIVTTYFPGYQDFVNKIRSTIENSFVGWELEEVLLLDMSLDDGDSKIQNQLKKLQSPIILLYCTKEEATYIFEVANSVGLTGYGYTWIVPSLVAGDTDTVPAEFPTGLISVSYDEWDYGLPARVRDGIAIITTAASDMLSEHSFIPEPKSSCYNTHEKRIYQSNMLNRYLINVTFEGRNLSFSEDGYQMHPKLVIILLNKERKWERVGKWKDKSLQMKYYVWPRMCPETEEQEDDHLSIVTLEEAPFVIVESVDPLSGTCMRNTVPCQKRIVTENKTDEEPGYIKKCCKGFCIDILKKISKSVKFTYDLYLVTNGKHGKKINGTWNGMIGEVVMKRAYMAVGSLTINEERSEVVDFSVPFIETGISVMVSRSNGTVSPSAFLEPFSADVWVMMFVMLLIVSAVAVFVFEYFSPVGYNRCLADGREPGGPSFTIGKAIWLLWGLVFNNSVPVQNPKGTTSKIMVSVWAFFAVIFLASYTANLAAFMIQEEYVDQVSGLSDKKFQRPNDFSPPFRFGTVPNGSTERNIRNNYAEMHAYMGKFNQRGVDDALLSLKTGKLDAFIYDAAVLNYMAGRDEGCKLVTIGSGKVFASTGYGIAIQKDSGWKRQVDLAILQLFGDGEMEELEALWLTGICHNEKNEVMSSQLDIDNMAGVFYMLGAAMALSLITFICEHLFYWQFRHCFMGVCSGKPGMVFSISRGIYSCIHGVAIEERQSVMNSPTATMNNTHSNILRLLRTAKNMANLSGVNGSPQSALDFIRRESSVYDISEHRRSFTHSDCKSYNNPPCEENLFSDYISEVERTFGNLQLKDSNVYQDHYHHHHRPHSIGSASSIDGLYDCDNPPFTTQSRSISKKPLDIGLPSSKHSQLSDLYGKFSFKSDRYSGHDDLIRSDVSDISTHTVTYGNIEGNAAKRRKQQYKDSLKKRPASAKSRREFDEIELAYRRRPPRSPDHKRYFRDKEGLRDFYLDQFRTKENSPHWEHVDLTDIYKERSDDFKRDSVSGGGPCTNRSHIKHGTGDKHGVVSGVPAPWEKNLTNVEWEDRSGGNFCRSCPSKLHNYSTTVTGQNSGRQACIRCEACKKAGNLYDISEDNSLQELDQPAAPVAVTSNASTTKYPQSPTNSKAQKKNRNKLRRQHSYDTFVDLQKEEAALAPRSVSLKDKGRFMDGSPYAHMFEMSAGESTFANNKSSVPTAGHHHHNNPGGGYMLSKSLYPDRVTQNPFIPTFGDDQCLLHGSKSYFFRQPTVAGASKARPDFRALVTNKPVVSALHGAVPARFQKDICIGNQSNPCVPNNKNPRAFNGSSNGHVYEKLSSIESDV

Row | Structure (SMILES) | IC50 (NMDA NR1/NR2B receptor) [nM] | further results
1 | CNC(=O)[C@@H]1CN(Cc2cnc(Oc3ccccc3)cn2)CCO1 [Example 34] | 644 | 
2 | CCN(CC)CC(=O)Nc1c(C)cccc1C [Lidocaine, reference compound] |  | inhibition at 1000 µM (Nav1.6 channel; read-out: maximum inhibition at P1 (not normalized)): 46.4 to 47.2%; inhibition of evoked Nav1.6 currents (Nav1.6 channel; reference compound, FIG. 2): inhibited evoked currents in a concentration and use dependent manner
3 | CCCCNc1ccc(C(=O)OCCN(C)C)cc1 [Tetracaine, reference compound] |  | state-dependent inhibition of Nav1.6 (Nav1.6 channel; FIG. 1): much stronger at depolarized potentials than at hyperpolarized potential

Now from value to compound, other results behind:

Row | IC50 (NMDA NR1/NR2B receptor) [nM] | Structure (SMILES) | further results
4 | 197 | CNC(=O)[C@@H]1CN(Cc2cnc(Oc3c(F)cccc3F)cn2)CCO1 [Example 35] | 
5 | 542 | CNC(=O)[C@@H]1CN(Cc2cnc(Oc3c(C)cccc3F)cn2)CCO1 [Example 36] | 
